Data published in patent US6525022B1, “Receptor specific atrial natriuretic peptides” (Genentech, Inc., priority 1993, dated 2003).

Assays:
hNPR-C = biological target: T1, hNPR-C (Homo sapiens, UniProt P17342); experiment: Competitive binding to membranes from cells expressing human NPR-C; design: expressed in transfected cells; conditions: FIG. 19, in comparison to rat ANP
T1 sequence (P17342 27-541): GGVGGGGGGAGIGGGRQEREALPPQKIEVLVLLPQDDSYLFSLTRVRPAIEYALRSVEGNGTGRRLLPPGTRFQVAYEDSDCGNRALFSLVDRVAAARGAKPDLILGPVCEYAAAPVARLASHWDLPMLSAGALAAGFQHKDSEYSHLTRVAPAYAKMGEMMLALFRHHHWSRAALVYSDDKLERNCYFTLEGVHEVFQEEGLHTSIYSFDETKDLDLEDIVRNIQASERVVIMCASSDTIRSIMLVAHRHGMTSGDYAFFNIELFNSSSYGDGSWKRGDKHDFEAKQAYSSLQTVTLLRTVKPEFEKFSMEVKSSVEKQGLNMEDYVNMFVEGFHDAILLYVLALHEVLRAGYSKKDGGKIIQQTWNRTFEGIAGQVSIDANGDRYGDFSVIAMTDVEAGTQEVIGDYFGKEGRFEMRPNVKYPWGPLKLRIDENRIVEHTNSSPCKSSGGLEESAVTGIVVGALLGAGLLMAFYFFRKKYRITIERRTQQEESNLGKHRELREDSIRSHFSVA
Method: Membrane preparation. Stable cell lines expressing human NPR-A (Lowe and Fendly, J. Biol. Chem. 267:21691-21697 (1992)) or human NPR-C (Cunningham et al., EMBO J 13, 2508-2515 (1994)) were removed from cell culture dishes with 0.5 mM EDTA in phosphate buffered saline (PBS), placed in ice cold PBS and centrifuged at 228 g for 10 min at 4° C. The cell pellets were resuspended in ice-cold homogenization buffer (50 mM HEPES, 1 mM EDTA, 1 mM DTT, 0.25 M sucrose, 0.7 mg/mL pepstatin A, 0.5 mg/mL leupeptin and 1 mM PMSF, pH 7.4). The cells were then homogenized using a Brinkman polytron at setting 5 for 30 sec. The homogenate was centrifuged at 400×g for 10 min at 4° C. The supernatant was collected and centrifuged at 100,000×g for 30 min at 4° C. […] Protein concentrations was determined using the Biorad protein assay with IgG as a standard.
(§1) Membrane competition binding assays. […] The plates were washed six times with PBS, then air dried prior to adding scintillant and counted in a Packard Topcount scintillation counter for 1 min/well. Binding was measured in duplicate for each concentration of competitor.
(§2) Data analysis. The competition binding curves and cGMP production dose responses were analyzed by the four-parameter logistic equation with the KaleidaGraph™ program (Synergy Software, PA) to obtain estimates of the IC50 or EC50 values. […]

[1] = system: rhesus monkey kidney membranes (NPR-A and NPR-C); experiment: Competition binding in rhesus monkey kidney membranes; conditions: FIG. 11, rhesus monkey kidney membranes
Method: For preparation of membranes from Rhesus monkey tissues, frozen tissue was placed between parafilm and broken up into pieces by hitting with a hammer. Tissue was transferred to a 125 mL polypropylene tube containing 100 mL of ice-cold buffer #1 (50 mM HEPES, pH 7.4, 1 mM EDTA, 250 mM sucrose, 0.7 mg/mL pepstatin A, 0.5 mg/mL leupeptin, 1 mM PMSF, and 1 mM phosphoramidon). Tissue was homogenized with a Brinkman polytron on a setting of 5 two times for 10 sec. The sample was placed on ice between homogenizations. 11 mL of 30 mM MgCl2/100 mM NaCl containing 1 mM phosphoramidon was added to the homogenate. The homogenate was spun at 400×g for 10 min at 4° C. in a HB-4 rotor. The supernatant was transferred to another tube and spun as above. The supernatant was passed though four layers of sterile gauze then centrifuged at 30,000×g for 20 min at 4° C. in a 60 Ti rotor. […]
as §1, §2

Binding to human NPR-C membranes, competition for 125I-rat ANP (hNPR-C): does not effectively bind
SMILES: CC[C@H](C)[C@@H]1NC(=O)[C@H](CCCNC(=N)N)NC(=O)[C@H](CC(=O)O)NC(=O)[C@H]([C@@H](C)CC)NC(=O)[C@H](CO)NC(=O)CNC(=O)[C@H]([C@@H](C)O)NC(=O)[C@H](Cc2ccccc2)NC(=O)[C@@H](NC(=O)[C@H](CO)NC(=O)[C@H](CO)NC(=O)[C@H](CCCNC(=N)N)NC(=O)[C@H](CCCNC(=N)N)NC(=O)[C@H](CC(C)C)NC(=O)[C@@H](N)CO)CSSC[C@@H](C(=O)N[C@@H](CC(N)=O)C(=O)N[C@@H](CO)C(=O)N[C@@H](Cc2ccccc2)C(=O)N[C@@H](CCCNC(=N)N)C(=O)N[C@@H](Cc2ccc(O)cc2)C(=O)O)NC(=O)CNC(=O)[C@H](CC(C)C)NC(=O)CNC(=O)[C@H](CO)NC(=O)[C@H](CCC(N)=O)NC(=O)[C@H](C)NC(=O)[C@H](CCCNC(=N)N)NC1=O [ANF 27]
Displacement of 125I-rat ANP binding [1]: a smaller portion of the total binding is displaced
